For assay [1], the system named is Carrageenan induced paw edema. Put plainly: Carrageenan paw edema in rats: blends of Boswellia extract with edible oils (Example 7). The assay is classed as in vivo. As to the method:
The animals were housed in polypropylene cages and maintained under standard animal house conditions (12:12 hour light/dark cycle at 24±2° C. and 45-65% relative humidity). The rats had free access to standard pellet diet and water. 24 rats were divided into 8 groups comprising of 3 rats in each group. The rats were deprived of food, but had free access to drinking water for 12 h prior to the experiment. The treatment was as follows: After 12 hour fasting, baseline paw volume was recorded for each rat using digital plethysmometer (Ugo Basile, […]). Carrageenan (0.1 ml of 1%) in saline (0.9% NaCl) was injected into the plantar surface of the right hind paw of the animals. The experimental groups were given the designated extract/standard orally, 30 minutes prior to the injection of the carrageenan. After injection of carrageenan, paw volume was recorded at 3 hr. to 6 hr. post carrageenan. The edema was expressed as an increase in the volume of paw from baseline value, and the percentage of inhibition for each rat was calculated. Each composition of boswellia was obtained through standard mixing of boswellia extract with vegetable oil. • Group 1: 10 mg/Kg Diclofenac. • Group 2: 82 mg/Kg Hydrophobic blend of Boswellia extract (10% AKBA) with sesame oil (2:3). • Group 3: 82 mg/Kg Hydrophobic Boswellia extract (10% AKBA) with coconut oil (2:3). • Group 4: 82 mg/Kg Hydrophobic Boswellia extract (10% AKBA) with olive oil (2:3). • Group 5: 82 mg/Kg Hydrophobic Boswellia extract (10% AKBA) with rice bran (2:3). • Group 6: 82 mg/Kg Hydrophobic Boswellia extract (10% AKBA) with Cotton seed oil (2:3). • Group 7: 82 mg/Kg Hydrophobic Boswellia extract (10% AKBA) with Boswellia fat (2:3). • Group 8: 50 mg/Kg Homogenized dispersion hydrophobic Boswellia extract with 10% AKBA with sesame oil with 10% sesame lignans. (BS-4).

The subject of assay [2] is Carrageenan induced paw edema. In words: Carrageenan paw edema in rats: different ratios of Boswellia and sesame oil (Example 10). The format is in vivo. As for the experimental part: The animals were housed in polypropylene cages and maintained under standard animal house conditions (12:12 hour light/dark cycle at 24±2° C. and 45-65% relative humidity). The rats had free access to standard pellet diet and water. 27 rats were divided into 9 groups comprising of 3 rats in each group. The rats were deprived of food, but had free access to drinking water for 12 h prior to the experiment. The treatment was as follows: After 12 hour fasting, baseline paw volume was recorded for each rat using digital plethysmometer (Ugo Basile, […]). Carrageenan (0.1 ml of 1%) in saline (0.9% NaCl) was injected into the plantar surface of the right hind paw of the animals. The experimental groups were given the designated extract/standard orally, 30 minutes prior to the injection of the carrageenan. After injection of carrageenan, paw volume was recorded at 3 hr to 6 hr post carrageenan. The edema was expressed as an increase in the volume of paw from baseline value, and the percentage of inhibition for each rat was calculated. Different compositions of sesame oil with boswellia was tested to find out the optimum ratio with enhanced activity. Each composition of boswellia has undergone a regress milling and grinding resulting in SSA of greater than 1.2×10^3 m^2/kg. • Group 1: 50 mg/Kg AKBA10+Sesame oil (2:3). • Group 2: 50 mg/Kg, AKBA10+Sesame oil (5:7) • Group 3: 50 mg/Kg AKBA10+Sesame oil (9:11) • Group 4: 50 mg/Kg AKBA10+Sesame oil (1:3) • Group 5: 50 mg/Kg AKBA10+Sesame oil (1:5) • Group 6: 50 mg/Kg AKBA10+Sesame oil (1:9) • Group 7: 50 mg/Kg AKBA10+Sesame oil (1:1) • Group 8: 50 mg/Kg AKBA10+Sesame oil • Group 9: 10 mg/Kg Diclofenac
On the technique in general: In the carrageenan paw model, swelling and tenderness develop within hours.

The record followed here is patent US12527833B2, “Pharmaceutical composition made from hydrophobic phytochemicals dispersed in sesame oil to enhance bioactivity” (ARJUNA NATURAL PVT. LTD., priority 2017, dated 2026).

Structures are written as SMILES.

Regarding `O=C(O)Cc1ccccc1Nc1c(Cl)cccc1Cl` [Diclofenac], the Avrage percentage inhibition in assay [1] (average of 3HR and 6HR, doses as in table) was 68.3%. Further, the “Percentage inhibition (%) 3HR” value is reported as 66.67% in assay [1] (paw edema 3 hr post carrageenan, oral 30 min before, Diclofenac 10, oil blends 82, BS-4 50 mg/kg) and 66% in assay [2] (3 hr post carrageenan, oral, AKBA10+sesame oil 50 mg/Kg, SSA >1.2×10^3 m^2/kg, Diclofenac 10 mg/kg). Further, the “Percentage inhibition (%) 6HR” value in assay [1] (paw edema 6 hr post carrageenan, oral 30 min before, Diclofenac 10, oil blends 82, BS-4 50 mg/kg) amounted to 69.94%; in assay [2] (6 hr post carrageenan, oral, AKBA10+sesame oil 50 mg/Kg, Diclofenac 10 mg/kg), 98%. Moreover, the Average percentage inhibition in assay [2] (average of 3HR and 6HR) is 82%.
